In BindingDB's records for doi:10.1021/ja0277226 (Millennium Pharmaceuticals, 2002):

What was measured:
Carboxypeptidase A1 = molecular target: T1, Carboxypeptidase A1 (Bos taurus, UniProt P00730); experiment: CPA Inhibition Assay; conditions: pH 7.5; 22 °C
T1 sequence (P00730 whole entry): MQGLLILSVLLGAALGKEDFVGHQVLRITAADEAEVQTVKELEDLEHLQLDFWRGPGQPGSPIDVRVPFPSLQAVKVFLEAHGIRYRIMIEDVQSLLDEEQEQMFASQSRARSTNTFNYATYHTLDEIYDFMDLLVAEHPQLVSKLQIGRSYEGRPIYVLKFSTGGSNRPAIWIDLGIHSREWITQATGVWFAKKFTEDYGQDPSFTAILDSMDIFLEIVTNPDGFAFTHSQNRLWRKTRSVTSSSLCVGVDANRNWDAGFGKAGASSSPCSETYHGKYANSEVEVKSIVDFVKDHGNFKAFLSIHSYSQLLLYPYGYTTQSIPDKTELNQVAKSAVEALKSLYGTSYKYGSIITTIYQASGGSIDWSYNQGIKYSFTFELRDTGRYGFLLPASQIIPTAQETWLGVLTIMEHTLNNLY
Description: (§1) Assay for the inhibition of carboxypeptidase A (CPDA) was conducted in 96-well microplates format. Activity was monitored by measuring decrease in absorbance (328 nm) over a 15 minute time course using a Spectromax 250 absorbance plate reader. Compound IC50 values were determined using 10-pt concentration ranges. Rates of substrate hydrolysis were determined from time courses and converted to percent inhibition. Percent inhibition was plotted versus compound concentration and fit to the four parameter logistic equation by non-linear regression using Prism Graphpad software.

[1] = molecular target: Angiotensin-converting enzyme 2 (Homo sapiens, UniProt Q9BYF1); experiment: Enzyme Inhibition Assay; conditions: pH 6.5; 22 °C
Chain of Angiotensin-converting enzyme 2 (Q9BYF1 whole entry): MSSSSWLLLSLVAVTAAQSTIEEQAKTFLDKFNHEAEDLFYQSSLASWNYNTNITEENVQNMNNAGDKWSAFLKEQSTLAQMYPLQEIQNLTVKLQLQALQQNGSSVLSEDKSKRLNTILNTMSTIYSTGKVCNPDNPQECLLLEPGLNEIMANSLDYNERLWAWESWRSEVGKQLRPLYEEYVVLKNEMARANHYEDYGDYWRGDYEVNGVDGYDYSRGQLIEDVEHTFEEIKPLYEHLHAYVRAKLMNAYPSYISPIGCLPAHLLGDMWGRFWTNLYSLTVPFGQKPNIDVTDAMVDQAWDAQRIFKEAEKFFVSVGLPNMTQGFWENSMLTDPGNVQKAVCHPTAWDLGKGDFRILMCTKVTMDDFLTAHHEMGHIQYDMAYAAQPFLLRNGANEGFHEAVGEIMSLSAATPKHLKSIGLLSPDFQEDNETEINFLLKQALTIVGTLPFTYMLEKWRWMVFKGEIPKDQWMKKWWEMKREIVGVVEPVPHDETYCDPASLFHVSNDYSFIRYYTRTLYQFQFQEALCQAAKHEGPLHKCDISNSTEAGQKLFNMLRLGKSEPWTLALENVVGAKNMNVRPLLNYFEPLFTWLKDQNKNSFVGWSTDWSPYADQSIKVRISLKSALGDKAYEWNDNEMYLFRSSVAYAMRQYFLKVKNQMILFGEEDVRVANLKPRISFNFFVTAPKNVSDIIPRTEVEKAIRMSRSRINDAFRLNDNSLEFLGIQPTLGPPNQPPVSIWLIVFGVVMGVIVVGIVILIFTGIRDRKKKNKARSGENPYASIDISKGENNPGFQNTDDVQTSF
Description: as §1, with “Enzyme assay” for “Assay for the inhibition of carboxypeptidase A (CPDA)”, “384-well” for “96-well”, “increase” for “decrease”, “fluorescence (excitation @320 nm, emission @405” for “absorbance (328”, “60” for “15”, “BMG Polarstar Galaxy fluorescent” for “Spectromax 250 absorbance”

[2] = molecular target: T2, Angiotensin-converting enzyme (Sus scrofa, UniProt A1YQ85); experiment: Enzyme Inhibition Assay; conditions: pH 7.5; 22 °C
T2 sequence (A1YQ85 whole entry): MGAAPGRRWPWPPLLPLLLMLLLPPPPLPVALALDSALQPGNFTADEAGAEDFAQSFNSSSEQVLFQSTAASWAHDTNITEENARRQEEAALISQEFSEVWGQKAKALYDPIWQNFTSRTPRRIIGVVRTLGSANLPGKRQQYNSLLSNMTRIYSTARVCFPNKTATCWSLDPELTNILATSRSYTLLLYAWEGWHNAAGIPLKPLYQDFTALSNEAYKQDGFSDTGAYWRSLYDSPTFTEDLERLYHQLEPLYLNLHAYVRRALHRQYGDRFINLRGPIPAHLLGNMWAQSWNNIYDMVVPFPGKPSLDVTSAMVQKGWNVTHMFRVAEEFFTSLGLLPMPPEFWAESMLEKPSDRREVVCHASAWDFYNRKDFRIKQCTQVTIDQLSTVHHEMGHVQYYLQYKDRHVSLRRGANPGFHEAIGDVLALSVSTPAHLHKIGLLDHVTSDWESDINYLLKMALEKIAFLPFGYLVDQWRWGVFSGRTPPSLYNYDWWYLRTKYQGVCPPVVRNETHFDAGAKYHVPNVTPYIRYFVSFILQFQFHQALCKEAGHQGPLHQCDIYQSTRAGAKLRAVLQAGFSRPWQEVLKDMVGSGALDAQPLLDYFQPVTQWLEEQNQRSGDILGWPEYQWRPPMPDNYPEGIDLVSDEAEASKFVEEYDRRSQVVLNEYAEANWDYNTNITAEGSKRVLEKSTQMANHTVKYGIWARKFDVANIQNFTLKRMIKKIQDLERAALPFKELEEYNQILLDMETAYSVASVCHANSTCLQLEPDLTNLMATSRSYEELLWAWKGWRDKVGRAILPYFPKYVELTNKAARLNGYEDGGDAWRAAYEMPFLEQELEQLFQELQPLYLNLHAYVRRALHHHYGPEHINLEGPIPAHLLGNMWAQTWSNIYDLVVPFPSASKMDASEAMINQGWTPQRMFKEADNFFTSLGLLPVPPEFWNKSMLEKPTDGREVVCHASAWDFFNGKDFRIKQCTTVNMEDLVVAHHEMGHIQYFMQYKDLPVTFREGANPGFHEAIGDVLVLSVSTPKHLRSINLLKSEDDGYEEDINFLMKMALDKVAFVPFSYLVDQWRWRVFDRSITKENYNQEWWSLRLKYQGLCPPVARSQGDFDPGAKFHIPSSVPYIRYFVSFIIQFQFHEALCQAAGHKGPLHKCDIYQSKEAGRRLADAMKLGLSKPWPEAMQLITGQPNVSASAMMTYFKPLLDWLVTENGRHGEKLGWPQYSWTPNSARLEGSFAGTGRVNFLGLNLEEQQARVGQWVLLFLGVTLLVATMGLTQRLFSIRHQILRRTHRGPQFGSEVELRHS
Description: as §1, with “Enzyme assay” for “Assay for the inhibition of carboxypeptidase A (CPDA)”, “384-well” for “96-well”, “increase” for “decrease”, “fluorescence (excitation @320 nm, emission @405” for “absorbance (328”, “60” for “15”, “BMG Polarstar Galaxy fluorescent” for “Spectromax 250 absorbance”

| Structure (SMILES) | IC50 (Carboxypeptidase A1) | IC50 [1] | IC50 [2] |
| --- | --- | --- | --- |
| CC(C)C[C@H](N[C@@H](Cc1cncn1C(C)(C)C1CCCCC1)C(=O)O)C(=O)O [(2S)-2-{[(1S)-1-carboxy-2-[1-(2-cyclohexylpropan-2-yl)-1H-imidazol-5-yl]ethyl]amino}-4-methylpentanoic acid] | 12000 nM | 10 nM | > 10000 nM |
| Cc1ccccc1Cn1cncc1C[C@H](N[C@@H](CC(C)C)C(=O)O)C(=O)O [(2S)-2-{[(1S)-1-carboxy-2-{1-[(2-methylphenyl)methyl]-1H-imidazol-5-yl}ethyl]amino}-4-methylpentanoic acid] |  | 290 nM |  |
| CC(C)C[C@H](N[C@@H](Cc1cncn1Cc1ccc(Cl)cc1)C(=O)O)C(=O)O [(2S)-2-{[(1S)-1-carboxy-2-{1-[(4-chlorophenyl)methyl]-1H-imidazol-5-yl}ethyl]amino}-4-methylpentanoic acid] | > 10000 nM | 21 nM |  |
| Cc1cc(C)cc(Cn2cncc2C[C@H](N[C@@H](CC(C)C)C(=O)O)C(=O)O)c1 [(2S)-2-{[(1S)-1-carboxy-2-{1-[(3,5-dimethylphenyl)methyl]-1H-imidazol-5-yl}ethyl]amino}-4-methylpentanoic acid] | > 10000 nM | 1.4 nM | > 10000 nM |
| CC(C)C[C@H](N[C@@H](Cc1cncn1Cc1cc(Cl)cc(Cl)c1)C(=O)O)C(=O)O [MLN4760] | 27000 nM | 0.44 nM | > 100000 nM |
| CC(C)C[C@H](N[C@@H](Cc1cncn1Cc1ccc(OC(F)(F)F)cc1)C(=O)O)C(=O)O [(2S)-2-{[(1S)-1-carboxy-2-(1-{[4-(trifluoromethoxy)phenyl]methyl}-1H-imidazol-5-yl)ethyl]amino}-4-methylpentanoic acid] |  | 52 nM |  |
| CC[C@H](N[C@@H](Cc1cncn1Cc1ccccc1)C(=O)O)C(=O)O [(2S)-2-{[(1S)-2-(1-benzyl-1H-imidazol-5-yl)-1-carboxyethyl]amino}butanoic acid] | 2800 nM | 300 nM |  |
| Cc1ccc(Cn2cncc2C[C@H](N[C@@H](CC(C)C)C(=O)O)C(=O)O)cc1C [(2S)-2-{[(1S)-1-carboxy-2-{1-[(3,4-dimethylphenyl)methyl]-1H-imidazol-5-yl}ethyl]amino}-4-methylpentanoic acid] | > 10000 nM | 10 nM | > 10000 nM |
| Cc1cccc(Cn2cncc2C[C@H](N[C@@H](CC(C)C)C(=O)O)C(=O)O)c1 [(2S)-2-{[(1S)-1-carboxy-2-{1-[(3-methylphenyl)methyl]-1H-imidazol-5-yl}ethyl]amino}-4-methylpentanoic acid] | > 10000 nM | 4.2 nM | > 10000 nM |
| CC(C)C[C@H](N[C@@H](Cc1cncn1Cc1ccc([N+](=O)[O-])cc1)C(=O)O)C(=O)O [(2S)-2-{[(1S)-1-carboxy-2-{1-[(4-nitrophenyl)methyl]-1H-imidazol-5-yl}ethyl]amino}-4-methylpentanoic acid] |  | 76 nM |  |
| O=C(O)[C@H](Cc1ccccc1)N[C@@H](Cc1cncn1Cc1ccccc1)C(=O)O [(2S)-2-{[(1S)-2-(1-benzyl-1H-imidazol-5-yl)-1-carboxyethyl]amino}-3-phenylpropanoic acid] |  | 340 nM |  |
| CC(C)C[C@H](N[C@@H](Cc1cncn1CC1CCCCC1)C(=O)O)C(=O)O [(2S)-2-{[(1S)-1-carboxy-2-[1-(cyclohexylmethyl)-1H-imidazol-5-yl]ethyl]amino}-4-methylpentanoic acid] |  | 270 nM |  |
| Cc1ccc(Cn2cncc2C[C@H](N[C@@H](CC(C)C)C(=O)O)C(=O)O)cc1 [(2S)-2-{[(1S)-1-carboxy-2-{1-[(4-methylphenyl)methyl]-1H-imidazol-5-yl}ethyl]amino}-4-methylpentanoic acid] | > 10000 nM | 32 nM | > 10000 nM |
